Test results from ChEMBL document CHEMBL4002586, “Aurone Mannich base derivatives as promising multifunctional agents with acetylcholinesterase inhibition, anti-β-amyloid aggragation and neuroprotective properties for the treatment of Alzheimer's disease” (Eur J Med Chem, 2017).

Columns and labels:
[1] = target: T1, Amine oxidase [flavin-containing] A (Homo sapiens, UniProt P21397); test: Inhibition of recombinant human MAO-A expressed in baculovirus infected BTI insect cells at 10 uM using kynuramine as substrate incubated for 30 mins by fluorescence assay relative to control; settings: 0.5 h
T1 sequence (P21397 whole entry): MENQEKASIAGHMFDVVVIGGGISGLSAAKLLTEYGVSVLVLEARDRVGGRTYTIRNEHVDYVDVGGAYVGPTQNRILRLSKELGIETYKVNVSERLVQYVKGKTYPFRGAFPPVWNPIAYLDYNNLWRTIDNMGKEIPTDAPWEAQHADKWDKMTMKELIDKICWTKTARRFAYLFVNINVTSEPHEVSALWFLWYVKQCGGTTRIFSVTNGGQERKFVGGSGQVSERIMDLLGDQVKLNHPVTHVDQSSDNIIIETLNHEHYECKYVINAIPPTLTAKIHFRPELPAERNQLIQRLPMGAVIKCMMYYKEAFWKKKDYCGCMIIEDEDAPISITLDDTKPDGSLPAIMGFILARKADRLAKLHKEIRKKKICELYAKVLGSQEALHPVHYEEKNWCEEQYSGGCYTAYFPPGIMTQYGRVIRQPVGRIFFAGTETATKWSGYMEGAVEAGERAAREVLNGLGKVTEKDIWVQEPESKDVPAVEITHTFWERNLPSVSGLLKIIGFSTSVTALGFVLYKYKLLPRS

Acetylcholinesterase [2] = target: Acetylcholinesterase (Homo sapiens, UniProt P22303); test: Inhibition of human erythrocyte AChE using acetylthiocholine iodide as substrate measured after 15 mins by Ellman's method
Sequence of Acetylcholinesterase (Homo sapiens, UniProt P22303) (P22303 whole entry): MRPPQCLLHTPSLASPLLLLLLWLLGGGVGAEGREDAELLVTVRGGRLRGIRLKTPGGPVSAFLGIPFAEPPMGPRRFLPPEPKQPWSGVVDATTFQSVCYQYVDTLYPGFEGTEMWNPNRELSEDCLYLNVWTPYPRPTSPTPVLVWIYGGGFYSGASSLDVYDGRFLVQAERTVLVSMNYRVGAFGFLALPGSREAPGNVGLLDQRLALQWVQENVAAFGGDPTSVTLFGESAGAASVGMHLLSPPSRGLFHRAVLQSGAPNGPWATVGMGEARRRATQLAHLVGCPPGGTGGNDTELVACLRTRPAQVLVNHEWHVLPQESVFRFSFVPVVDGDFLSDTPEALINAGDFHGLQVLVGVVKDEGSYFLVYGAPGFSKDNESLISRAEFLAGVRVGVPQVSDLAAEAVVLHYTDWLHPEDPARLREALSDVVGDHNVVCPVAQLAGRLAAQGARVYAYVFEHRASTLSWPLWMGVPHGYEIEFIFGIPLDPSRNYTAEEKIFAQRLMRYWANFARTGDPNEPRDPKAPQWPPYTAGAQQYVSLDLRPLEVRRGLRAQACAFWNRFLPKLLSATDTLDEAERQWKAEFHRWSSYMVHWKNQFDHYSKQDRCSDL

Acetylcholinesterase [3] = target: T2, Acetylcholinesterase (Rattus norvegicus, UniProt P37136); test: Inhibition of AChE in rat brain cortex homogenates using acetylthiocholine iodide as substrate in presence of BuChE inhibitor tetraisopropyl pyrophosphoramide measured after 15 mins by Ellman's method
T2 sequence (P37136 whole entry): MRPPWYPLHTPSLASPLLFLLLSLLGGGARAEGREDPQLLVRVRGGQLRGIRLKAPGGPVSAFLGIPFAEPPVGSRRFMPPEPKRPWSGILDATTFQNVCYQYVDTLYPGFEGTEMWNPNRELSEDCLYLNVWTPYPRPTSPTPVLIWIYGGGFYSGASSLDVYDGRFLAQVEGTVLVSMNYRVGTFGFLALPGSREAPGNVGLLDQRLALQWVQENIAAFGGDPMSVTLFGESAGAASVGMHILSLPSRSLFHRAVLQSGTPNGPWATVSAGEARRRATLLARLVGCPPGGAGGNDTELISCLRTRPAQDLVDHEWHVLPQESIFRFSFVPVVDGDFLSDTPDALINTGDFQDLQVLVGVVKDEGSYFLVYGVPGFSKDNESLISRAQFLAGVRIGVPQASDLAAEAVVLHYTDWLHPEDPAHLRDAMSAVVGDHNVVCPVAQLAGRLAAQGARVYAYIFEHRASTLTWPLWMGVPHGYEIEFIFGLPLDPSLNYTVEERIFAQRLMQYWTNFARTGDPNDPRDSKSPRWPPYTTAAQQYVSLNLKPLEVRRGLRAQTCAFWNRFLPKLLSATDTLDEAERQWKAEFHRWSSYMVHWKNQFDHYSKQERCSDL

[4] = Inhibition of Cu2+-mediated aggregation of human amyloid beta (1 to 42 residues) at 25 uM after 24 hrs by thioflavin T-based fluorometric assay relative to control; type: functional
Acetylcholinesterase [5] = target: Acetylcholinesterase (Electrophorus electricus, UniProt O42275); test: Inhibition of Electrophorus electricus AChE using acetylthiocholine iodide as substrate measured after 15 mins by Ellman's method
Sequence of Acetylcholinesterase (Electrophorus electricus, UniProt O42275) (O42275 whole entry): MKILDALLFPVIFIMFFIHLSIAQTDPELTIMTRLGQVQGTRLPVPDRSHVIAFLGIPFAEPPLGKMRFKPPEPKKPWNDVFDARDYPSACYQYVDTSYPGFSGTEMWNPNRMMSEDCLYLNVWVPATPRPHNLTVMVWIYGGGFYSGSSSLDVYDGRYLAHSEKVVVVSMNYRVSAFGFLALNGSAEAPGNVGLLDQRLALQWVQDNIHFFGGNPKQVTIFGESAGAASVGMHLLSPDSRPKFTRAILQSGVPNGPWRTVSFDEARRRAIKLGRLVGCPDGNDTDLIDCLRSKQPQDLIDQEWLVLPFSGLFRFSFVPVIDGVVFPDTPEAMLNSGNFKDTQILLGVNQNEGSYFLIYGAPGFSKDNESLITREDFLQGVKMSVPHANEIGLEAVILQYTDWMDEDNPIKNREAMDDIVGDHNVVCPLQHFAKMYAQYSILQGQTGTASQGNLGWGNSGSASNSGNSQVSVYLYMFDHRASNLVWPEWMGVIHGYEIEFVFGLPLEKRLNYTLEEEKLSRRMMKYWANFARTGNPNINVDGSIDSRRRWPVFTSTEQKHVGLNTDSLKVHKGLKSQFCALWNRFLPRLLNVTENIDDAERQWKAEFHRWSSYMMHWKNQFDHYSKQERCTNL

[6] = target: butyrylcholinesterase (BuChE) (Rattus norvegicus, UniProt Q9JKC1); test: Inhibition of BuChE in rat serum at 50 uM using butyrylthiocholine as substrate measured after 15 mins by Ellman's method relative to control; settings: probe butyrylthiocholine
Sequence of butyrylcholinesterase (BuChE) (Q9JKC1 whole entry, the tested form may be a part): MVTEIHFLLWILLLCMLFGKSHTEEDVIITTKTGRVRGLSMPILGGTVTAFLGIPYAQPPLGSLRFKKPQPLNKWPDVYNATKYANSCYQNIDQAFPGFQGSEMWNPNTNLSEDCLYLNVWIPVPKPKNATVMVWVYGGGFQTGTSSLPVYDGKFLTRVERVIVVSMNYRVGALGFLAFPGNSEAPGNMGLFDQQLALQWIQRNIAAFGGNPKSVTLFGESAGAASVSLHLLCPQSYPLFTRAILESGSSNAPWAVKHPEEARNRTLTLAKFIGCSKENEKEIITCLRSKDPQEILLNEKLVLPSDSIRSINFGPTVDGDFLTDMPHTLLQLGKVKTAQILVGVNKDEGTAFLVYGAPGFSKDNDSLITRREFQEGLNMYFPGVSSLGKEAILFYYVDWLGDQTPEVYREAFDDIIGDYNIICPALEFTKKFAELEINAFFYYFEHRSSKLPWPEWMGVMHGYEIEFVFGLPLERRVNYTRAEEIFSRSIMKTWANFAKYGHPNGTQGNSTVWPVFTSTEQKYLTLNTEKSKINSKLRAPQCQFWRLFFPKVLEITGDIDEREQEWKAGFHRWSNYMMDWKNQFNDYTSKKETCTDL

[7] = target: Amyloid-beta precursor protein (Homo sapiens) (UniProt P05067); test: Inhibition of self-induced aggregation of HFIP-treated human amyloid beta (1 to 42 residues) at 25 uM after 24 hrs by thioflavin T-based fluorometric assay relative to control
Sequence of Amyloid-beta precursor protein (Homo sapiens) (P05067 whole entry, the tested form may be a part): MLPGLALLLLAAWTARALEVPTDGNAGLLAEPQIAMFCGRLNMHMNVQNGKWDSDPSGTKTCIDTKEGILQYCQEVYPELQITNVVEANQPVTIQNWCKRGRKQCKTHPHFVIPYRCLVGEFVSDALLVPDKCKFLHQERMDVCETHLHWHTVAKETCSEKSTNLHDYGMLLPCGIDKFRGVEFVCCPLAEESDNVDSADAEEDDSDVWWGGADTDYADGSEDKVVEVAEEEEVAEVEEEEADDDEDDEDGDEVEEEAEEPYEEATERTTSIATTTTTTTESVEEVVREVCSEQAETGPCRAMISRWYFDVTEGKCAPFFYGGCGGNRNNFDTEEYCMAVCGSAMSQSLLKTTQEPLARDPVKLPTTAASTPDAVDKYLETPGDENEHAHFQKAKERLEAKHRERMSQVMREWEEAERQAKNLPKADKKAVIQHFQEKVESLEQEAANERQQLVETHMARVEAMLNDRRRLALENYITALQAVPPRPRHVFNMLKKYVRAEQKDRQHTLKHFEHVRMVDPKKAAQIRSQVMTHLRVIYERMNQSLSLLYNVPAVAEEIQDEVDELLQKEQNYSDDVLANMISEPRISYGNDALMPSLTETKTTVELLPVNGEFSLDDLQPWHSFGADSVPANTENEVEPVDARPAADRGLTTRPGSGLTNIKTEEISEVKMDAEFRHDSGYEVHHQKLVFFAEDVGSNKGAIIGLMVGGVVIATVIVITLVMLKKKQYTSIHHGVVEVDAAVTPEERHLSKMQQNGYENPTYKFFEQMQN

[8] = Antioxidant activity assessed as inhibition of AAPH-induced peroxyl radical generation at 5 uM measured as trolox equivalent preincubated for 15 mins followed by AAPH addition measured every 60 secs for 90 mins by ORAC-FL assay; type: functional
[9] = target: T3, Amine oxidase [flavin-containing] B (Homo sapiens, UniProt P27338); test: Inhibition of recombinant human MAO-B expressed in baculovirus infected BTI insect cells at 10 uM using kynuramine as substrate incubated for 30 mins by fluorescence assay relative to control; settings: 0.5 h
T3 sequence (P27338 whole entry): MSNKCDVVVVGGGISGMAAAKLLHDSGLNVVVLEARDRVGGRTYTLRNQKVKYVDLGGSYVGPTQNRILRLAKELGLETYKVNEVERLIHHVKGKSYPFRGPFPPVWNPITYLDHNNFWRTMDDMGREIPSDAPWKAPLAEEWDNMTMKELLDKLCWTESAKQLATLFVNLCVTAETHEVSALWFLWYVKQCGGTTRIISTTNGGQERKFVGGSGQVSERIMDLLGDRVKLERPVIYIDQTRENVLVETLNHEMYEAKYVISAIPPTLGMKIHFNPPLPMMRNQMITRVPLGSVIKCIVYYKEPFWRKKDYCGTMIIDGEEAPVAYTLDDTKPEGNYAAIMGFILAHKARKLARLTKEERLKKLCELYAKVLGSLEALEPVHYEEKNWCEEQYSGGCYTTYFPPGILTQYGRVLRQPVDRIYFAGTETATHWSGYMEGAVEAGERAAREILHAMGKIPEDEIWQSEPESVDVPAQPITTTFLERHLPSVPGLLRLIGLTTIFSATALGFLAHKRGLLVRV

[10] = target: Acetylcholinesterase (Electrophorus electricus) (UniProt O42275); test: Inhibition of Electrophorus electricus AChE at 50 uM using acetylthiocholine iodide as substrate measured after 15 mins by Ellman's method relative to control
Sequence of Acetylcholinesterase (Electrophorus electricus) (O42275 24-633 limits assumed): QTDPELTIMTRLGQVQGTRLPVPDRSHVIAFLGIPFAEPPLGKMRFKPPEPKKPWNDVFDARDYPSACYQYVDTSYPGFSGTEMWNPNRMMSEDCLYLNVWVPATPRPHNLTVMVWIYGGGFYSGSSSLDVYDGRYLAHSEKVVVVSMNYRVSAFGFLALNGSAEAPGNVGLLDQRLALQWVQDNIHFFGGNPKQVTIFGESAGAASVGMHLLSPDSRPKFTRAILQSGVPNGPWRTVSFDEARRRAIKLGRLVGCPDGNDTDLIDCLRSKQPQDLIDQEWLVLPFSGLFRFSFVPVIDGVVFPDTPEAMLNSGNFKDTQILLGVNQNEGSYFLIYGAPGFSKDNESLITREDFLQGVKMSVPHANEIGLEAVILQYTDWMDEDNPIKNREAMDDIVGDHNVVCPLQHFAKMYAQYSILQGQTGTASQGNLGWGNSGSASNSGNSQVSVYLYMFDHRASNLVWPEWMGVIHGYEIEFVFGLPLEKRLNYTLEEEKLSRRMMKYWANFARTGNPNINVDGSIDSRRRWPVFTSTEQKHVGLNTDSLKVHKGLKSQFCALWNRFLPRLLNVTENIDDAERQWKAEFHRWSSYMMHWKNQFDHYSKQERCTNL

[11] = target: T4, Acetylcholinesterase (Rattus norvegicus) (UniProt P37136); test: Inhibition of AChE in rat brain cortex homogenates at 50 uM using acetylthiocholine iodide as substrate in presence of BuChE inhibitor tetraisopropyl pyrophosphoramide measured after 15 mins by Ellman's method relative to control
T4 sequence (whole entry): T2 sequence (P37136 whole entry)

Structure (SMILES): COc1cc2c(cc1OC)C(=O)/C(=C/c1ccc(CN3CCOCC3)c(O)c1)O2
- inhibition at 10 µM [1]: 12.1%
- IC50 (Acetylcholinesterase [2]): 6 µM
- IC50 (Acetylcholinesterase [3]): 8.66 µM
- inhibition [4]: 28.5%
- IC50 (Acetylcholinesterase [5]): 20.2 µM
- inhibition at 0.25 h, 50 µM [6]: < 5%
- inhibition [7]: 31.5%
- Activity [8]: 1.58 equiv
- inhibition at 10 µM [9]: 3.3%

Structure (SMILES): CCN(Cc1ccc(/C=C2\Oc3cc(OC)c(OC)cc3C2=O)cc1O)Cc1ccccc1OC
- inhibition at 10 µM [1]: 9.7%
- IC50 (Acetylcholinesterase [3]): 44.9 µM
- inhibition [4]: 71.2%
- IC50 (Acetylcholinesterase [5]): 37 µM
- inhibition at 0.25 h, 50 µM [6]: 5.21%
- inhibition [7]: 74.9%
- Activity [8]: 1.47 equiv
- inhibition at 10 µM [9]: 26.4%

Structure (SMILES): COc1cc2c(cc1OC)C(=O)/C(=C/c1ccc(O)cc1)O2
- inhibition at 10 µM [1]: 12.1%
- IC50 (Acetylcholinesterase [3]): 297 µM
- inhibition [4]: 26.7%
- IC50 (Acetylcholinesterase [5]): 64.4 µM
- inhibition at 0.25 h, 50 µM [6]: < 5%
- inhibition [7]: 15.7%
- Activity [8]: 1.52 equiv
- inhibition at 10 µM [9]: 36.1%

Structure (SMILES): COc1cc(/C=C/C(=O)CC(=O)/C=C/c2ccc(O)c(OC)c2)ccc1O
- inhibition [4]: 67.2%

Structure (SMILES): COc1cc2c(cc1OC)C(=O)/C(=C/c1ccc(CN(C)C)c(O)c1)O2
- inhibition at 10 µM [1]: 20.2%
- IC50 (Acetylcholinesterase [2]): 24.3 µM
- IC50 (Acetylcholinesterase [3]): 25.8 µM
- inhibition [4]: 32.2%
- IC50 (Acetylcholinesterase [5]): 8.93 µM
- inhibition at 0.25 h, 50 µM [6]: < 5%
- inhibition [7]: 46.9%
- Activity [8]: 2.02 equiv
- inhibition at 10 µM [9]: 2.23%

Structure (SMILES): COc1cc2c(cc1OC)C(=O)/C(=C/c1ccc(CN3CCN(Cc4ccccc4)CC3)c(O)c1)O2
- inhibition [10]: < 5%
- inhibition at 10 µM [1]: 15.3%
- inhibition [4]: 38.7%
- inhibition at 0.25 h, 50 µM [6]: < 5%
- inhibition [11]: < 5%
- inhibition [7]: 41.8%
- Activity [8]: 1.01 equiv
- inhibition at 10 µM [9]: 6.9%

Structure (SMILES): CCN(Cc1ccccc1)Cc1ccc(/C=C2\Oc3cc(OC)c(OC)cc3C2=O)cc1O
- inhibition at 10 µM [1]: 17%
- IC50 (Acetylcholinesterase [3]): 94.1 µM
- inhibition [4]: 60.9%
- IC50 (Acetylcholinesterase [5]): 35.8 µM
- inhibition at 0.25 h, 50 µM [6]: < 5%
- inhibition [7]: 72.5%
- Activity [8]: 1.17 equiv
- inhibition at 10 µM [9]: 23.9%

Structure (SMILES): CCN(Cc1ccc(N(C)C)cc1)Cc1ccc(/C=C2\Oc3cc(OC)c(OC)cc3C2=O)cc1O
- inhibition at 10 µM [1]: 6.8%
- IC50 (Acetylcholinesterase [3]): 288 µM
- inhibition [4]: 68.5%
- IC50 (Acetylcholinesterase [5]): 431 µM
- inhibition at 0.25 h, 50 µM [6]: < 5%
- inhibition [7]: 80.5%
- Activity [8]: 2.02 equiv
- inhibition at 10 µM [9]: 19.2%

Structure (SMILES): COc1cc2c(cc1OC)C(=O)/C(=C/c1ccc(CN3CCN(C)CC3)c(O)c1)O2
- inhibition at 10 µM [1]: 9.2%
- IC50 (Acetylcholinesterase [2]): 14 µM
- IC50 (Acetylcholinesterase [3]): 16.3 µM
- inhibition [4]: 35.1%
- IC50 (Acetylcholinesterase [5]): 11.9 µM
- inhibition at 0.25 h, 50 µM [6]: < 5%
- inhibition [7]: 38.6%
- Activity [8]: 1.78 equiv
- inhibition at 10 µM [9]: 1%

Structure (SMILES): COc1cc2c(cc1OC)C(=O)/C(=C/c1cccc(O)c1)O2
- inhibition at 10 µM [1]: 17.2%
- IC50 (Acetylcholinesterase [3]): 131 µM
- inhibition [4]: 28.9%
- IC50 (Acetylcholinesterase [5]): 36.3 µM
- inhibition at 0.25 h, 50 µM [6]: < 5%
- inhibition [7]: 33.6%
- Activity [8]: 1.51 equiv
- inhibition at 10 µM [9]: 37%

Structure (SMILES): COc1ccccc1CN(C)Cc1ccc(/C=C2\Oc3cc(OC)c(OC)cc3C2=O)cc1O
- inhibition at 10 µM [1]: 16.3%
- IC50 (Acetylcholinesterase [3]): 74.4 µM
- inhibition [4]: 55.8%
- IC50 (Acetylcholinesterase [5]): 28.9 µM
- inhibition at 0.25 h, 50 µM [6]: < 5%
- inhibition [7]: 55.1%
- Activity [8]: 1.35 equiv
- inhibition at 10 µM [9]: 8.4%

Structure (SMILES): COc1cc2c(cc1OC)C(=O)/C(=C/c1ccc(CN(C)Cc3ccccc3)c(O)c1)O2
- inhibition at 10 µM [1]: 19.4%
- IC50 (Acetylcholinesterase [2]): 26.3 µM
- IC50 (Acetylcholinesterase [3]): 20 µM
- inhibition [4]: 70.1%
- IC50 (Acetylcholinesterase [5]): 9.1 µM
- inhibition at 0.25 h, 50 µM [6]: < 5%
- inhibition [7]: 51.5%
- Activity [8]: 1.62 equiv
- inhibition at 10 µM [9]: 17.8%

Structure (SMILES): COc1cc2c(cc1OC)C(=O)/C(=C/c1ccc(CN3CCCC3)c(O)c1)O2
- inhibition at 10 µM [1]: 62.9%
- IC50 (Acetylcholinesterase [2]): 1.32 µM
- IC50 (Acetylcholinesterase [3]): 0.246 µM
- inhibition [4]: 38.8%
- IC50 (Acetylcholinesterase [5]): 2.7 µM
- inhibition at 0.25 h, 50 µM [6]: 19%
- inhibition [7]: 57.2%
- Activity [8]: 1.79 equiv
- inhibition at 10 µM [9]: 37.9%

Structure (SMILES): CCN(CC)Cc1ccc(/C=C2\Oc3cc(OC)c(OC)cc3C2=O)cc1O
- inhibition at 10 µM [1]: 22.7%
- IC50 (Acetylcholinesterase [2]): 0.7 µM
- IC50 (Acetylcholinesterase [3]): 0.108 µM
- inhibition [4]: 23.6%
- IC50 (Acetylcholinesterase [5]): 0.486 µM
- inhibition at 0.25 h, 50 µM [6]: < 5%
- inhibition [7]: 47.5%
- Activity [8]: 2.06 equiv
- inhibition at 10 µM [9]: 7.2%

Structure (SMILES): CCN1CCN(Cc2ccc(/C=C3\Oc4cc(OC)c(OC)cc4C3=O)cc2O)CC1
- inhibition at 10 µM [1]: 15.1%
- IC50 (Acetylcholinesterase [2]): 32.1 µM
- IC50 (Acetylcholinesterase [3]): 24 µM
- inhibition [4]: 39.7%
- IC50 (Acetylcholinesterase [5]): 11.7 µM
- inhibition at 0.25 h, 50 µM [6]: < 5%
- inhibition [7]: 49.1%
- Activity [8]: 1.61 equiv
- inhibition at 10 µM [9]: 2.6%
